This is an account of results in publication PMC7495481, “Sequence specificity analysis of the SETD2 protein lysine methyltransferase and discovery of a SETD2 super-substrate” (Communications Biology, 2020).

What all share (format): biochemical
Assay [1] deals with T1, SETD2 (Homo sapiens, UniProt Q9BYW2).
T1 construct: SETD2 catalytic SET domain (amino acids 1347–1711, UniProt No: Q9BYW2); made in house; host or cells: E. coli
T1 sequence (Q9BYW2 1347-1711): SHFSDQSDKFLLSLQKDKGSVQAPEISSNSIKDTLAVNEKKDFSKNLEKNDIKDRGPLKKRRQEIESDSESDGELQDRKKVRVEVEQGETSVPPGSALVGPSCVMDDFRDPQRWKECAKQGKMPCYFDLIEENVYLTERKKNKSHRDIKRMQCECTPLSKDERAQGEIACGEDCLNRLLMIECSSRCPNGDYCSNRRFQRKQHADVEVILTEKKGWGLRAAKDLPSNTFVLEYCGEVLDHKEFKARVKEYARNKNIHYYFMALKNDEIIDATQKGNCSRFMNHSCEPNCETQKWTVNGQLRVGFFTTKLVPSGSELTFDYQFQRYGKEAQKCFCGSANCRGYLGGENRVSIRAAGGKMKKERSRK
Kind of assay: Peptide SPOT array methylation of H3K36 (29–43) variants, super-substrate design (Fig. 2a). From the text:
Based on these observations, we aimed to explore, if better substrates than H3K36 can be designed for SETD2. We synthesized peptide SPOT arrays including H3K36 (29–43) as a positive control and the H3K36A mutant as a negative control, in which up to 5 combined mutations were systematically introduced that converted the original H3K36 residues into residues that are more favored (Fig. 2a and Supplementary Table 1). This peptide array was methylated by SETD2 as described above and the methylation signal was captured by autoradiography.
Fig. 2 Design of an optimized SETD2 peptide substrate and analysis of its methylation. a Variants of the H3K36 (29–43) peptide containing up to five mutations (Supplementary Table 1) were synthesized on a cellulose membrane and methylated by SETD2. The signal of the transferred radioactive methyl groups was detected by autoradiography. Spots A1 and B15 contain the H3K36 sequence, A2 and B16 the H3K36A peptide. Two films with different exposure times are shown to visualize weaker methylated spots as well. b Comparison of the methylation of purified super-substrate (ssK36) and the H3K36 peptides. […] Methylation reactions were conducted using 20 µM peptide and 6 µM enzyme. The lower panels display autoradiography films after different exposure times allowing to compare the methylation levels of the different samples. For comparison, different dilutions of the methylated ssK36 were loaded as indicated. c Time course of ssK36 peptide methylation determined under single turnover conditions using 5 µM substrate and 6 µM enzyme. […] The gels with the radioactive ssK36 (5 µl loaded per well) and H3K36 peptides (20 µl loaded per well) were exposed together to the same x-ray film. […] An enlargement of the H3K36 data with adjusted y-axis scale is shown in Supplementary Fig. 3d.
Peptide arrays containing fifteen amino acid long peptides were synthesized using the SPOT synthesis method[48] with an Autospot peptide array synthesizer (Intavis AG, Köln, Germany). After synthesis, the obtained membranes were pre-incubated in methylation buffer (20 mM Tris/HCl pH 9, 0.01% Triton X-100, 10 mM DTT, 1.5 mM MgCl2) for 5 min on a shaker. Thereafter, the membranes were incubated in methylation buffer supplemented with 0.76 µM radioactively labeled AdoMet (PerkinElmer) and 3–6 µM SETD2 enzyme for 60 min on a shaker. After methylation, the membranes were washed 5 times for 5 min in wash buffer (100 mM NH4HCO3, 1% SDS) and incubated in amplify NAMP100V (GE Healthcare) for 5 min. This was followed by the exposure of the membranes to a hyperfilm^TM high performance autoradiography (GE Healthcare) film at −80 °C in the dark. The films were developed with an Optimax Typ TR machine after different exposue times. For quantification the signal intensities were measured with the Phoretix^TM software and analyzed with Microsoft Excel.

For assay [2], the target named is T1, SETD2. The experiment in a line: Single turnover time course of ssK36 methylation. The note with it: 5 µM substrate, 6 µM enzyme; average ± SEM. As for the experimental part:
The H3K36 (27–43) and the H3K36M (27–43) peptides were purchased from Intavis AG (Köln, Germany) and the ssK36 peptide (29–43) and the ssK36M peptide (29–43) were from Innovative Peptide Solutions (Berlin, Germany). If not indicated otherwise, peptide methylation reactions were performed using 20 µM peptide and 6 µM SETD2 in 20 µl methylation buffer supplemented with 0.76 µM radioactive labeled AdoMet (PerkinElmer) for 3 h at 25 °C. The reactions were halted by the addition of Tricine-SDS-PAGE loading buffer and incubation for 5 min at 95 °C. Afterward the samples were separated by Tricine-SDS-PAGE, which was followed by the incubation of the gel in amplify NAMP100V (GE Healthcare) for 45 min on a shaker and drying of the gel for 2 h at 55 °C in vacuum. The signals of the transferred radioactive labeled methyl groups were detected by autoradiography using a hyperfilm^TM high performance autoradiography film (GE Healthcare) at −80 °C in the dark. The film was developed with an Optimax Typ TR machine after different exposure times.
Time courses of ssK36 methylation were analyzed by fitting to an exponential reaction progress curve (Eq. 1). Initial rates of single turnover reactions were determined using the first derivative of eq. 1 at t = 0. Signal=BL+F×1−exp^−kst×t […]

The next assay concerns SUV39H2. Kind of assay: Methylation of ssK36 by SUV39H2. The note with it: peer review file Figure R1.
The next assay deals with NSD1. Kind of assay: Peptide methylation by NSD1. The note with it: peer review file. The source says:
(§1) We, therefore, repeated the peptide array used for the development of the SETD2 super-substrate, which is shown in Figure 2A of our manuscript for NSD1 and NSD2. […]
(§2) that this mutation specifically increases the activity of these two enzymes. In contrast, with […]
(§3) combined with H39N/K. Importantly, in case of SETD2 H39N only has an effect in the context of the other mutations in ssK36. We conclude that the ssK36 substrate is specifically optimized for SETD2 as expected given the workflow of our experiments. The finding that H39N increases the activity of NSD1 and NSD2 is interesting and deserves additional work. It […]
(§4) conducted with NSD1 and NSD2. The SETD2 panel is taken from the manuscript for comparison. The table indicates the peptide compositions. Note, the gradual increase of methylation with increasing number of mutations in the case of SETD2. In case of NSD1 and NSD2, increased methylation is solely due to the H39N mutation , which has a weaker […]

A further assay deals with NSD2. The experiment in a line: Peptide methylation by NSD2. The note with it: peer review file.
From the text: as §1, §2, §3, §4

As for “APRFGGVKRPNRYRP [ssK36, super-substrate peptide with four amino acid exchanges (A31R, T32F, K37R, H39N)]”, the “peptide array methylation of H3K36 variants (in words)” value on SETD2 [1] (SPOT array, 0.76 µM radioactive AdoMet, 3–6 µM SETD2, 60 min, pH 9, autoradiography) was “one of the most strongly methylated peptides”. Also, the “fold stronger methylation of ssK36 than H3K36” value on SETD2 [1] (densitometric analysis of 5 pairs of H3K36 and ssK36 spots on independent arrays, ± SD) came to 70 ± 10 fold. Besides, the “single turnover methylation rate constant kst” value at SETD2 [2] was 4.07 ± 0.39 h⁻¹. Further, the “methylation by SUV39H2” value with SUV39H2 was “Lack of methylation”. In addition, the “methylation by NSD1” value in the assay on NSD1 is recorded as “better substrate than H3K36”. In addition, in the assay on NSD2, the “methylation by NSD2” value is given as “better substrate than H3K36”.
